Data taken from PubChem BioAssay AID1963960 (Molecular Pharmacology Branch, DTP, NCI, 2024).

Test system: MDA-MB-468 spheroids with HUVEC/MSC, viability
Experiment: Anticancer human tumor MDA-MB-468 cell line growth inhibition [PI3K];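 further: spheroids exposed to agents for seven days before readout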;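 on viability, T/C: 100% = DMSO vehicle control viability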
Details: for IC50: curve of first compound; for viability, T/C: stronger effect = lower value; active means viability on the fitted dose curve at most 10% of control; inactive means the rest
Summary of the method: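 Complex 3D spheroids (cancer cells + endothelial HUVEC + mesenchymal stem cells); drug pairs of targeted agent x inavolisib/alpelisib/duvelisib/copanlisib; half-log series from ~Cmax, max 10 microM if Cmax unknown; endpoint viability.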

[1] = second compound 0.0316 µM, first compound 0.0316 µM
[2] = second compound 0.0316 µM, first compound 0.1 µM
[3] = second compound 0.0316 µM, first compound 0.316 µM
[4] = second compound 0.0316 µM, first compound 1 µM
[5] = second compound 0.0316 µM, first compound 3.16 µM
[6] = second compound 0.0316 µM, first compound 10 µM
[7] = second compound 0.1 µM, first compound 0.0316 µM
[8] = second compound 0.1 µM, first compound 0.1 µM
[9] = second compound 0.1 µM, first compound 0.316 µM
[10] = second compound 0.1 µM, first compound 1 µM
[11] = second compound 0.1 µM, first compound 3.16 µM
[12] = second compound 0.1 µM, first compound 10 µM
[13] = second compound 0.316 µM, first compound 0.0316 µM
[14] = second compound 0.316 µM, first compound 0.1 µM
[15] = second compound 0.316 µM, first compound 0.316 µM
[16] = second compound 0.316 µM, first compound 1 µM
[17] = second compound 0.316 µM, first compound 3.16 µM
[18] = second compound 0.316 µM, first compound 10 µM
[19] = second compound 1 µM, first compound 0.0316 µM
[20] = second compound 1 µM, first compound 0.1 µM
[21] = second compound 1 µM, first compound 0.316 µM
[22] = second compound 1 µM, first compound 1 µM
[23] = second compound 1 µM, first compound 3.16 µM
[24] = second compound 1 µM, first compound 10 µM
[25] = second compound 3.16 µM, first compound 0.0316 µM
[26] = second compound 3.16 µM, first compound 0.1 µM
[27] = second compound 3.16 µM, first compound 0.316 µM
[28] = second compound 3.16 µM, first compound 1 µM
[29] = second compound 3.16 µM, first compound 3.16 µM
[30] = second compound 3.16 µM, first compound 10 µM
[31] = second compound 10 µM, first compound 0.0316 µM
[32] = second compound 10 µM, first compound 0.1 µM
[33] = second compound 10 µM, first compound 0.316 µM
[34] = second compound 10 µM, first compound 1 µM
[35] = second compound 10 µM, first compound 3.16 µM
[36] = second compound 10 µM, first compound 10 µM

CC1(C)CCC(CN2CCN(c3ccc(C(=O)NS(=O)(=O)c4ccc(NCC5CCOCC5)c([N+](=O)[O-])c4)c(Oc4cnc5[nH]ccc5c4)c3)CC2)=C(c2ccc(Cl)cc2)C1 + CC(Nc1ncnc2nc[nH]c12)c1cc2cccc(Cl)c2c(=O)n1-c1ccccc1
inactive: viability, T/C [1] 90.5% | viability, T/C [2] 84.6% | viability, T/C [3] 87% | viability, T/C [4] 87.4% | viability, T/C [5] 69.9% | viability, T/C [6] 15.2% | viability, T/C [7] 83.8% | viability, T/C [8] 82.2% | viability, T/C [9] 79.6% | viability, T/C [10] 76.1% | viability, T/C [11] 65.1% | viability, T/C [12] 18.3% | viability, T/C [13] 76.5% | viability, T/C [14] 68.5% | viability, T/C [15] 78% | viability, T/C [16] 68.8% | viability, T/C [17] 62.6% | viability, T/C [18] 17.2% | viability, T/C [19] 58.9% | viability, T/C [20] 65% | viability, T/C [21] 69.9% | viability, T/C [22] 72.2% | viability, T/C [23] 55.8% | viability, T/C [24] 15.5% | viability, T/C [25] 50% | viability, T/C [26] 46.9% | viability, T/C [27] 47.2% | viability, T/C [28] 49.4% | viability, T/C [29] 50.5% | viability, T/C [30] 13.8% | viability, T/C [31] 38.4% | viability, T/C [32] 30.9% | viability, T/C [33] 39% | viability, T/C [34] 42.5% | viability, T/C [35] 32.3% | viability, T/C [36] 15.4%
31.6 nM: IC50 (second compound 3.16 µM)
< 31.6 nM: IC50 (second compound 10 µM)
4530 nM: IC50 (second compound 0.1 µM)
4300 nM: IC50 (second compound 0.316 µM)
4800 nM: IC50 (second compound 0.0316 µM)
3730 nM: IC50 (second compound 1 µM)

C[C@@H](NC(=O)c1ncnc(N)c1Cl)c1ncc(C(=O)Nc2cc(C(F)(F)F)c(Cl)cn2)s1 + CC(Nc1ncnc2nc[nH]c12)c1cc2cccc(Cl)c2c(=O)n1-c1ccccc1
< 31.6 nM: IC50 (second compound 10 µM)
> 10000 nM: IC50 (second compound 0.0316 µM) | IC50 (second compound 0.1 µM) | IC50 (second compound 0.316 µM) | IC50 (second compound 1 µM) | IC50 (second compound 3.16 µM)
inactive: viability, T/C [1] 107% | viability, T/C [2] 114% | viability, T/C [3] 92.5% | viability, T/C [4] 109% | viability, T/C [5] 91.3% | viability, T/C [6] 94.9% | viability, T/C [7] 83% | viability, T/C [8] 94.3% | viability, T/C [9] 93.3% | viability, T/C [10] 89% | viability, T/C [11] 93.5% | viability, T/C [12] 83.7% | viability, T/C [13] 84.8% | viability, T/C [14] 76.8% | viability, T/C [15] 83.1% | viability, T/C [16] 82% | viability, T/C [17] 75.5% | viability, T/C [18] 83.7% | viability, T/C [19] 70% | viability, T/C [20] 65.8% | viability, T/C [21] 75.3% | viability, T/C [22] 81.8% | viability, T/C [23] 75.2% | viability, T/C [24] 64.5% | viability, T/C [25] 61.8% | viability, T/C [26] 60.2% | viability, T/C [27] 63.7% | viability, T/C [28] 55.7% | viability, T/C [29] 61.8% | viability, T/C [30] 58.9% | viability, T/C [31] 42.3% | viability, T/C [32] 40.6% | viability, T/C [33] 46.1% | viability, T/C [34] 53% | viability, T/C [35] 41.7% | viability, T/C [36] 39.2%

Cn1ncnc1[C@H]1c2n[nH]c(=O)c3cc(F)cc(c23)N[C@@H]1c1ccc(F)cc1 + CC(Nc1ncnc2nc[nH]c12)c1cc2cccc(Cl)c2c(=O)n1-c1ccccc1
inactive: viability, T/C (second compound 0.0316 µM, first compound 0.000316 µM) 84.5% | viability, T/C (second compound 0.0316 µM, first compound 0.001 µM) 90.7% | viability, T/C (second compound 0.0316 µM, first compound 0.00316 µM) 86.9% | viability, T/C (second compound 0.0316 µM, first compound 0.01 µM) 78.1% | viability, T/C [1] 68.1% | viability, T/C [2] 51.2% | viability, T/C (second compound 0.1 µM, first compound 0.000316 µM) 78.3% | viability, T/C (second compound 0.1 µM, first compound 0.001 µM) 95.1% | viability, T/C (second compound 0.1 µM, first compound 0.00316 µM) 85% | viability, T/C (second compound 0.1 µM, first compound 0.01 µM) 66% | viability, T/C [7] 65.3% | viability, T/C [8] 51.7% | viability, T/C (second compound 0.316 µM, first compound 0.000316 µM) 73.2% | viability, T/C (second compound 0.316 µM, first compound 0.001 µM) 74.5% | viability, T/C (second compound 0.316 µM, first compound 0.00316 µM) 73% | viability, T/C (second compound 0.316 µM, first compound 0.01 µM) 69.9% | viability, T/C [13] 64% | viability, T/C [14] 49.5% | viability, T/C (second compound 1 µM, first compound 0.000316 µM) 59.3% | viability, T/C (second compound 1 µM, first compound 0.001 µM) 74% | viability, T/C (second compound 1 µM, first compound 0.00316 µM) 60.1% | viability, T/C (second compound 1 µM, first compound 0.01 µM) 64.5% | viability, T/C [19] 57.8% | viability, T/C [20] 46.8% | viability, T/C (second compound 3.16 µM, first compound 0.000316 µM) 55.5% | viability, T/C (second compound 3.16 µM, first compound 0.001 µM) 52.1% | viability, T/C (second compound 3.16 µM, first compound 0.00316 µM) 53.4% | viability, T/C (second compound 3.16 µM, first compound 0.01 µM) 52.8% | viability, T/C [25] 51.9% | viability, T/C [26] 38.7% | viability, T/C (second compound 10 µM, first compound 0.000316 µM) 39.4% | viability, T/C (second compound 10 µM, first compound 0.001 µM) 37.8% | viability, T/C (second compound 10 µM, first compound 0.00316 µM) 40.6% | viability, T/C (second compound 10 µM, first compound 0.01 µM) 36.9% | viability, T/C [31] 35.2% | viability, T/C [32] 26.9%
37 nM: IC50 (second compound 3.16 µM)
72.5 nM: IC50 (second compound 1 µM)
> 100 nM: IC50 (second compound 0.0316 µM) | IC50 (second compound 0.1 µM)
96.2 nM: IC50 (second compound 0.316 µM)
< 0.316 nM: IC50 (second compound 10 µM)
